Reference: PubChem BioAssay (NCI)
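1) Cells in 96-well plates. 2) Compound, 48 h, 5 concentrations. 3) Linear interpolation between surrounding doses. 4) Unreached endpoint = highest concentration. Definition used: TGI = concentration required for complete inhibition of growth.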

Tests used:
Assay in all cases: NCI-60 cell line screen, 48 h
A549 NSCLC = system: A549 NSCLC
HOP-92 NSCLC = system: HOP-92 NSCLC
ACHN renal = system: ACHN renal
HCT-15 colon = system: HCT-15 colon
LOX IMVI melanoma = system: LOX IMVI melanoma
HT29 colon = system: HT29 colon
SK-OV-3 ovarian = system: SK-OV-3 ovarian
MOLT-4 leukemia = system: MOLT-4 leukemia
KM12 colon = system: KM12 colon
NCI-H522 lung = system: NCI-H522 lung
DU-145 prostate = system: DU-145 prostate
MALME-3M melanoma = system: MALME-3M melanoma
K-562 leukemia = system: K-562 leukemia
U251 CNS = system: U251 CNS
RPMI-8226 leukemia = system: RPMI-8226 leukemia
UACC-257 melanoma = system: UACC-257 melanoma
IGROV1 ovarian = system: IGROV1 ovarian
MDA-MB-231 breast = system: MDA-MB-231 breast
TK-10 renal = system: TK-10 renal

Row | Structure (SMILES) | TGI (A549 NSCLC) | TGI (HOP-92 NSCLC) | TGI (ACHN renal) | TGI (HCT-15 colon) | TGI (LOX IMVI melanoma) | TGI (HT29 colon) | TGI (SK-OV-3 ovarian) | TGI (MOLT-4 leukemia) | TGI (KM12 colon) | TGI (NCI-H522 lung) | TGI (DU-145 prostate) | TGI (MALME-3M melanoma) | TGI (K-562 leukemia) | TGI (U251 CNS) | TGI (RPMI-8226 leukemia) | TGI (UACC-257 melanoma) | TGI (IGROV1 ovarian) | TGI (MDA-MB-231 breast) | TGI (TK-10 renal)
1 | C=CCN1CCC(O)(c2cc(C(=O)OCC)[nH]c2-c2cc(C)no2)C1 (stereo unspecified) | > 100 µM | > 100 µM | > 100 µM | > 100 µM | > 100 µM | > 100 µM | > 100 µM | > 100 µM | > 100 µM | > 100 µM | > 100 µM | > 100 µM | > 100 µM | > 100 µM | > 100 µM | > 100 µM | > 100 µM | > 100 µM | > 100 µM
2 | CCOC(=O)C(CCN1CCC2(CC1)C(=O)N(C)CN2c1ccccc1)C(=O)OCC | > 100 µM | > 100 µM | > 100 µM | > 100 µM | > 100 µM | > 100 µM | > 100 µM | > 100 µM | > 100 µM | > 100 µM | > 100 µM | > 100 µM | > 100 µM | > 100 µM | > 100 µM | > 100 µM | > 100 µM | > 100 µM | > 100 µM
3 | CCC(=O)O[C@H]1CC[C@H]2[C@@H]3CCC4=C/C(=N/OC(=O)c5cccc6cc7ccccc7nc56)CC[C@]4(C)[C@H]3CC[C@]12C | > 100 µM | > 100 µM | > 100 µM | > 100 µM | > 100 µM | > 100 µM | > 100 µM | > 100 µM | > 100 µM | > 100 µM | > 100 µM | > 100 µM | > 100 µM | > 100 µM | > 100 µM | > 100 µM | > 100 µM | > 100 µM | –
4 | [N-]=[N+]=NCc1nc(N)c2c3c(sc2n1)CCCC3 | 36.6 µM | 1.77 µM | 14.1 µM | 11.4 µM | 2.13 µM | 3.15 µM | 24.1 µM | > 100 µM | 2.86 µM | – | 13.2 µM | 3.27 µM | > 40.6 µM | > 25.3 µM | > 24.9 µM | 25.8 µM | 2.92 µM | 80.6 µM | 26.5 µM
5 | O=C1c2ccccc2C(=O)c2c1nc1ccccc1c2-c1cncc(-c2c3c(nc4ccccc24)C(=O)c2ccccc2C3=O)c1 | 22.3 µM | > 43.7 µM | > 55.7 µM | 9.34 µM | 13.8 µM | 27.8 µM | > 100 µM | 12.2 µM | > 61.6 µM | 19.6 µM | 16.1 µM | 24.1 µM | > 100 µM | > 45.8 µM | 3.51 µM | 22.4 µM | 19.7 µM | 98.2 µM | > 100 µM
6 | O=C(N(O)c1ccccc1Cl)C(O)(c1ccccc1)c1ccccc1 | > 100 µM | > 100 µM | > 100 µM | > 100 µM | > 100 µM | > 100 µM | > 100 µM | > 100 µM | > 100 µM | > 100 µM | > 100 µM | > 100 µM | 71.5 µM | > 100 µM | 69 µM | > 100 µM | > 100 µM | > 100 µM | > 100 µM
7 | CC1CN=C(N(C(=O)Nc2ccccc2)c2ccc(Cl)c(Cl)c2)S1 (stereo unspecified) | > 100 µM | 52.3 µM | > 100 µM | > 100 µM | 93.3 µM | 78 µM | > 100 µM | > 10 µM | > 100 µM | – | > 100 µM | > 100 µM | > 10 µM | > 10 µM | > 100 µM | > 100 µM | > 100 µM | > 100 µM | > 100 µM
8 | CC1=C(/C=C/C(C)=C/C=C/C(C)=C/C(=O)OC2CC(n3cc(F)c(=O)[nH]c3=O)OC2CO)C(C)(C)CCC1 (stereo unspecified) | 17.6 µM | 36.7 µM | 11.6 µM | 27.6 µM | 20.6 µM | 21.5 µM | 19.7 µM | 20.2 µM | 31.4 µM | 11.4 µM | 13.4 µM | 31.9 µM | 14 µM | 20 µM | 15.8 µM | 29.6 µM | 24.6 µM | 29.4 µM | 25.8 µM
9 | CCSC1=N/C(=C\c2ccc(N(C)C)cc2)C(Cl)=N1 | > 100 µM | > 100 µM | > 100 µM | > 100 µM | – | > 100 µM | > 100 µM | > 100 µM | > 100 µM | > 100 µM | > 100 µM | > 100 µM | – | > 100 µM | > 100 µM | > 100 µM | > 100 µM | > 100 µM | > 100 µM
10 | CC1CN=C(N(C(=O)Nc2ccc(Cl)c(Cl)c2)c2ccccc2)S1 (stereo unspecified) | > 100 µM | > 100 µM | > 100 µM | > 100 µM | > 100 µM | > 100 µM | – | > 100 µM | > 100 µM | – | > 100 µM | > 100 µM | – | > 100 µM | > 100 µM | > 100 µM | > 100 µM | > 100 µM | > 100 µM
11 | COc1ccc(/C=C2\c3cc(OC)c(OC)cc3CCN2C(=O)c2ccccc2)cc1OC | > 100 µM | > 100 µM | > 100 µM | > 100 µM | > 100 µM | > 100 µM | – | 80.6 µM | > 100 µM | 45.4 µM | > 100 µM | 71.1 µM | > 100 µM | > 100 µM | > 100 µM | > 100 µM | > 100 µM | > 100 µM | > 100 µM
12 | CC(=O)OCC1OC(n2c(C)cc(C)c(C#N)c2=S)C(OC(C)=O)C(OC(C)=O)C1OC(C)=O (stereo unspecified) | > 100 µM | > 100 µM | > 100 µM | > 100 µM | > 100 µM | > 100 µM | – | > 100 µM | > 100 µM | > 100 µM | > 100 µM | > 100 µM | > 100 µM | > 100 µM | > 100 µM | > 100 µM | > 100 µM | > 100 µM | > 100 µM
13 | O=C(Cn1c(-c2ccccc2)cc2ccccc21)N1CCCC1 | > 100 µM | > 100 µM | > 100 µM | > 100 µM | > 100 µM | > 100 µM | > 100 µM | > 100 µM | – | > 100 µM | > 100 µM | > 100 µM | – | – | – | > 100 µM | > 100 µM | > 100 µM | –
14 | CC1(C)OC[C@@H]([C@H](O)C2C=CC(=O)S2)O1 (stereo partly specified) | > 100 µM | 58.5 µM | 49.2 µM | 35.5 µM | 31.7 µM | 55.5 µM | > 100 µM | 75.2 µM | 30.1 µM | – | 56.6 µM | 43.1 µM | > 100 µM | 90.4 µM | 53.4 µM | > 100 µM | – | 70 µM | > 100 µM
15 | COc1ccc(N=NC(=O)NC(CC(C)C)C(=O)NC(C)C(=O)O)cc1 (stereo unspecified) | > 51.2 µM | > 100 µM | > 100 µM | > 100 µM | – | > 100 µM | – | > 100 µM | > 100 µM | > 100 µM | > 100 µM | > 100 µM | > 38.4 µM | > 100 µM | > 100 µM | > 100 µM | > 100 µM | > 100 µM | > 100 µM
16 | CCOC(=O)c1nc2cc(F)c(N3CCOCC3)cc2[nH]c1=O | > 100 µM | > 100 µM | > 100 µM | > 100 µM | – | > 100 µM | > 100 µM | > 100 µM | > 100 µM | > 100 µM | > 100 µM | > 100 µM | > 100 µM | > 100 µM | > 100 µM | > 100 µM | > 100 µM | > 100 µM | > 100 µM
17 | Cc1c2cccc-2c(OCCO)cc2c3ccccc3n(C)c12 | 15.5 µM | 6.13 µM | 24 µM | 45 µM | 8.15 µM | 18.3 µM | 7.34 µM | 34.6 µM | 12.9 µM | 4.8 µM | 20.6 µM | 17 µM | 21.4 µM | 5.84 µM | – | 17.6 µM | 7.77 µM | 10 µM | 23.4 µM
18 | CN(C)/N=C1/CCC(C(F)(F)F)(C(F)(F)F)O1 | > 100 µM | 70.1 µM | > 100 µM | > 100 µM | 66.5 µM | > 100 µM | > 100 µM | > 100 µM | 48.8 µM | 99.3 µM | > 100 µM | 61.1 µM | > 100 µM | > 100 µM | 85.5 µM | – | 82.7 µM | 57.4 µM | > 100 µM
19 | CC1C=CN(N(C)C)C2=C1C(=O)c1cnccc1C2=O (stereo unspecified) | 2.11 µM | 3.87 µM | 1.06 µM | 1.23 µM | 0.307 µM | 2.27 µM | 2.81 µM | 4.06 µM | 2.8 µM | 0.55 µM | 1.39 µM | 1.49 µM | – | 2.49 µM | 2.65 µM | 0.75 µM | 1.07 µM | 2.12 µM | 1.44 µM
20 | CCOC(=O)NNC(=O)NCCCCNC(=O)NNC(=O)OCC | > 100 µM | > 100 µM | > 100 µM | > 100 µM | > 100 µM | > 100 µM | > 100 µM | > 100 µM | > 100 µM | > 100 µM | > 100 µM | – | > 100 µM | > 100 µM | > 100 µM | > 100 µM | > 100 µM | > 100 µM | > 100 µM
